The results in this text go back to patent publication US20060247862A1, “Determining cell cycle phase data” (priority 2003, published 2006).

This assay concerns U2OS cells. The assay can be described thus: Effect of cell cycle blocking agents on GFP fluorescence from cell cycle phase marker using transiently transfected cells. It counts as cell-based. To be noted: U2OS cells transiently transfected with cyclin B1 promoter/D-box/CRS-GFP construct; 24 hours exposure; compared to control cells (culture media alone); confocal imaging. Here is the method: U2OS cells (ATCC HTB-96) were cultured in wells of a 96 well microtitre plate. Cells were transfected with a cell cycle reporter construct prepared according to Example 1, comprising a cyclin B1 promoter operably linked to sequences encoding the cyclin B1 D-box, the cyclin B1 CRS, and GFP in a pCORON4004 vector (Amersham Biosciences) using Fugene 6 (Roche) as the transfection agent.
Following 24 hours of culture, cells were exposed to the specific cell cycle blockers mimosine (blocks at G1/S phase boundary) or demecolcine (blocks in M phase). Control cells were exposed to culture media alone.
Cells were incubated for a further 24 hours and then analysed for nuclear GFP expression using a confocal scanning imager with automated image analysis (IN Cell Analysis System, Amersham Biosciences).

On to `NC(Cn1ccc(=O)c(O)c1)C(=O)O` (centres unmarked) [mimosine], for which the “GFP fluorescence (nuclear GFP expression) from cell cycle phase marker” value is listed as “decreased fluorescence compared to control cells”.
In the case of `CN[C@H]1CCc2cc(OC)c(OC)c(OC)c2-c2ccc(OC)c(=O)cc21` [demecolcine] it was “increased fluorescence compared to control cells”.
